Laboratory results reported in PMC7956643, “Synthesis of Novel Pyrido[1,2-c]pyrimidine Derivatives with 6-Fluoro-3-(4-piperidynyl)-1,2-benzisoxazole Moiety as Potential SSRI and 5-HT1A Receptor Ligands” (International Journal of Molecular Sciences, 2021).
Entries after “also recorded” stand apart in the source; their conditions may differ. Marks after values point to notes of the source that are not given here.

Assays:
[1] = target: T1, 5-HT1A receptor (Mus musculus, UniProt Q64264); experiment: Body temperature in mice (induced hypothermia); assay type: in vivo, CD-1 mice
T1 construct: from tissue; host or cells: whole animal, male CD-1 mice
T1 sequence (Q64264 1-421): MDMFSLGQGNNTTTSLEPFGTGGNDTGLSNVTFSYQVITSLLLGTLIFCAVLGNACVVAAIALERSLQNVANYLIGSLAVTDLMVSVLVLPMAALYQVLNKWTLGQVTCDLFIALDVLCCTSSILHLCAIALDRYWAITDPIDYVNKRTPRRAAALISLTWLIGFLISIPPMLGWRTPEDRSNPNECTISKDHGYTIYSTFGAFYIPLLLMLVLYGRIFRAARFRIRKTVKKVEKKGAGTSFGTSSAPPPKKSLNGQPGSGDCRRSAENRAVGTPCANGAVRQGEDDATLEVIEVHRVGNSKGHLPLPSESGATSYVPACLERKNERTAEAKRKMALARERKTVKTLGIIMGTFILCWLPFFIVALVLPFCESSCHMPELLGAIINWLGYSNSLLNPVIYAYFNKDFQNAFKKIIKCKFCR
Experimental: (§1) The experiments were performed on male CD-1 mice (23–40 g). The animals were kept at room temperature (21 ± 2 °C) on a natural day-night cycle (March–October) and housed under standard laboratory conditions. They had free access to food and tap water before the experiment. Each experimental group consisted of 6–8 animals/dose. All the animals were used only once. 8-Hydroxy-2-(di-n-propylamino)tetralin hydro-bromide (8-OH-DPAT, Research Biochemical Inc.) was used as aqueous solution. […] Vehicle group was administered as 10% aqueous solution of dimethyl sulphoxide (DMSO). 8-OH-DPAT was injected subcutaneously (sc); 6a and 7g were given intraperitoneally (ip) in a volume of 10 mL/kg/mice. The obtained data were analyzed by Dunnett’s test (one drug administration) or by the Newman–Keuls test (two drugs administrations). Forced swim test: the obtained data was evaluated by one-way analysis of variance (ANOVA) followed by the Dunnett’s multiple comparisons test: p < 0.05 was considered significant.
(§2) The results were expressed as a change in body temperature (Δt) with respect to the basal body temperature, as measured at the beginning of the experiment.

[2] = target: T1, 5-HT1A receptor; experiment: Effect of WAY-100635 on the hypothermia induced by tested compounds; assay type: in vivo, CD-1 mice; conditions: mice
Experimental: as §1, §2

`O=c1c(-c2ccccc2)c2ccccn2c(=O)n1CCCCN1CCC(c2noc3cc(F)ccc23)CC1` [Compound 6a, 4-Phenyl-2-{4-[4-(6-fluoro-1,2-benzoxazol-3-yl)-1-piperidyl]butyl}-pyrido[1,2-c]pyrimidine-1,3-dione] was tested, and the “Functional 5-HT1A receptor activity profile” value ([1]; concluded from induced hypothermia test in mice) was “presynaptic agonist of the 5-HT1A receptor; also recorded: presynaptic 5-HT1A agonistic activity”, the “Induction of hypothermia in mice” value ([1]; mice) was “induced hypothermia” and the “Δt ± SEM, body temperature” value ([1]; mice, 0.6 mg/kg ip, 30 min) was −1.0 ± 0.2 ^b °C. For the same compound, the “Δt ± SEM, body temperature” value ([1]; mice, 0.6 mg/kg ip, 60 min) was −1.2 ± 0.1 ^b °C, the “Δt ± SEM, body temperature” value ([1]; mice, 0.6 mg/kg ip, 90 min) was −0.9 ± 0.1 ^a °C and the “Δt ± SEM, body temperature” value ([1]; mice, 0.6 mg/kg ip, 120 min) was −0.8 ± 0.2 ^a °C. For the same compound, the “Δt ± SEM, body temperature” value ([1]; mice, 1.25 mg/kg ip, 30 min) was −1.7 ± 0.3 ^b °C, the “Δt ± SEM, body temperature” value ([1]; mice, 1.25 mg/kg ip, 60 min) was −1.7 ± 0.3 ^b °C and the “Δt ± SEM, body temperature” value ([1]; mice, 1.25 mg/kg ip, 90 min) was −1.6 ± 0.2 ^b °C. For the same compound, the “Δt ± SEM, body temperature” value ([1]; mice, 1.25 mg/kg ip, 120 min) was −1.6 ± 0.3 ^b °C, the “Δt ± SEM, body temperature” value ([1]; mice, 2.5 mg/kg ip, 30 min) was −1.6 ± 0.2 ^b °C and the “Δt ± SEM, body temperature” value ([1]; mice, 2.5 mg/kg ip, 60 min) was −2.5 ± 0.3 ^b °C. The “Δt ± SEM, body temperature” value ([1]; mice, 2.5 mg/kg ip, 90 min) was −2.4 ± 0.3 ^b °C, the “Δt ± SEM, body temperature” value ([1]; mice, 2.5 mg/kg ip, 120 min) was −2.0 ± 0.2 ^b °C and the “Δt ± SEM, body temperature” value ([1]; mice, 5 mg/kg ip, 30 min) was −2.0 ± 0.2 ^b °C. The “Δt ± SEM, body temperature” value ([1]; mice, 5 mg/kg ip, 60 min) was −3.2 ± 0.5 ^b °C, the “Δt ± SEM, body temperature” value ([1]; mice, 5 mg/kg ip, 90 min) was −3.1 ± 0.5 ^b °C and the “Δt ± SEM, body temperature” value ([1]; mice, 5 mg/kg ip, 120 min) was −2.8 ± 0.5 ^b °C. The “Δt ± SEM, body temperature” value ([2]; WAY-100635 0.1 mg/kg sc 15 min before compound 0.6 mg/kg, 30 min) was −0.5 ± 0.2 ^b,d °C, the “Δt ± SEM, body temperature” value ([2]; WAY-100635 0.1 mg/kg sc 15 min before compound 0.6 mg/kg, 60 min) was −0.4 ± 0.2 ^a,e °C and the “Hypothermia induced by compound diminished by WAY-100635” value ([2]; WAY-100635 0.1 mg/kg, compound 0.6 mg/kg) was 50%. The “Δt ± SEM, body temperature” value ([2]; vehicle + compound 0.6 mg/kg, 30 min) was −1.0 ± 0.2 ^c °C and the “Δt ± SEM, body temperature” value ([2]; vehicle + compound 0.6 mg/kg, 60 min) was −1.2 ± 0.1 ^c °C.
